These results are taken from patent publication US20090306612A1, “ABSORBENT ARTICLE” (SCA HYGIENE PRODUCTS AB, priority 2006, published 2009).

What all share (type): cell-based
Experiment [1] concerns P. mirabilis. The experiment is described as follows: Bacterial growth in absorbent cores (method 4), P. mirabilis. As for the experimental part: (§1) 16 ml (corresponding to a maximum absorption capacity of a test specimen according to method 1) of test liquid 1 containing the bacteria were added to a test specimen placed in plastic tubs, and a lid was fitted on the tubs. The tubs were turned upside down and incubated in a warm cabinet at 35° C. After incubation for 0, 6 and 12 hours, the test samples were placed in a plastic bag with peptone water and the content was homogenized (agitated and worked up) in a stomacker for 3 minutes. The homogenate was diluted in dilution tubes with peptone water and a microbiological culture was spread on agar plates. Slanetz Bartley agar was used for E. faecalis, and Drigalski agar for E. coli and P. mirabilis. The specimens were incubated at 35° C. for 1-2 days before the colonies were counted and the log CFU/ml calculated. Control tests were also carried out with absorbent cores without NaCl.
(§2) Bacteria were cultured in nutrient broth and diluted to the desired concentration of about Log 3.3 in test liquid 1 (method 4). Absorbent test specimens were produced according to method 1. […] The bacterial growth was measured according to method 4.
(§3) Absorbent cores were produced according to method 1. […] The bacterial growth of E. coli, P. mirabilis and E. faecalis was measured after 0, 6 and 12 hours according to method 4. […]

The test system of experiment [2] is E. coli. The experiment is described as follows: Bacterial growth in absorbent cores (method 4), E. coli. The protocol:
as §1, §2, §3

In experiment [3] the test system is E. faecalis. Put plainly: Bacterial growth in absorbent cores (method 4), E. faecalis. As for the experimental part: as §1, §2, §3
Experiment [4] relates to Proteus mirabilis. Put plainly: Ammonia formation in absorbent cores (method 3). Particulars: Example 2, FIG. 5; specimen containing 29% by weight of NaCl; after 6 and 8 hours. The protocol: Absorbent test specimens were produced according to method 1. A bacterial suspension of Proteus mirabilis was cultured in nutrient solution at 30° C. overnight. The grafted cultures were diluted with test liquid 1 and the quantity of bacteria was determined. The final culture contained approximately 10^5 organisms per ml of test liquid. The absorbent core was placed in a plastic tub and test liquid 1 containing bacteria was added to the absorbent core, after which the container was incubated at 35° C. for 4, 6 and 8 hours, and then the specimens were removed from the container using a hand pump and a so-called Drager tube. The ammonia content was obtained as a color change on a scale graduated in ppm or percent by volume.
Absorbent test specimens were produced according to method 1. 16 ml, maximum absorption capacity, of test liquid 1 containing bacteria were added to a test specimen. 29 (high), 22 (medium) and 12 (low) % by weight of NaCl (% dry) and 22 (medium) % by weight of CaCl2 (% dry) were added to the core. The quantity of developed ammonia was measured according to method 3 after 6 and 8 hours. […]
Absorbent test specimens were produced according to method 1. […] The quantity of added pH-reducing substance was 5% by weight of the pulp. […] The quantity of developed ammonia was measured according to method 3 after 6 and 8 hours.

[5] abbreviates: 3% added salt (% wet) = 29% by weight (% dry), NaCl high in FIG. 4, 12 hours, 35° C., 16 ml test liquid 1 (maximum load), start about Log 3.3, method counts log CFU/ml.
Where [6] appears, read: Example 1, FIG. 4, 29, 22 and 12% by weight NaCl (% dry), after 6 and 12 hours, inhibition better with higher salt content.

Turning to `[Cl-].[Na+]` [NaCl], the “growth of P. mirabilis after 12 hours” value in experiment [1] (setting [5]) is reported as less than 5.5 log. The “growth of P. mirabilis compared with the control tests” value in experiment [1] (setting [6]) is “lower”. The “growth of E. coli after 12 hours” value in experiment [2] (setting [5]) is less than 5.5 log. The “growth of E. coli compared with the control tests” value in experiment [2] (setting [6]) is listed as “lower”. In addition, the “growth of E. faecalis after 12 hours” value in experiment [3] (setting [5]) is less than 5.5 log. Moreover, the “growth of E. faecalis compared with the control tests” value in experiment [3] (setting [6]) is reported as “lower”. Also, the “development of NH3, ranking among the specimens” value in experiment [4] was “lowest development of NH3”.
